Experimental data from patent US10807958B2, “1,4-bis(3-aminopropyl)piperazine derivative and its use” (INSERM (Institut National de la Sante et de la Recherche …, priority 2015, dated 2020).

Key:
[1] = tested on: endogenous Tau (MAPT) of wild-type C57/BL6 animals; assay: 2D gel electrophoresis of endogenous brain Tau in treated wild-type animals; type: in vivo, mouse; conditions: wild-type mice, 1 month; for number of Tau isovariants stained with antibody S199: 5 isovariants in non-treated condition
Description: (§1) Wild-type C57BL/6J animals of 3 months were purchased at Charles Rivers Laboratories (France) and were allow to acclimate in the animal facility for at least one week before any treatment. Thy-Tau22 transgenic colonies (C57BL/6J genetic background) were obtained by crossing heterozygous Thy-Tau22 males with C57BL/6 WT females. […] In this model, a progressive development of NFT is observed in the hippocampus and amygdala, which parallels behavioral impairments (Schindowski et al., 2006). Furthermorever, in the hippocampus, hyper- and abnormally phosphorylated Tau species accumulate within the somato-dendritic area (Schindowski et al., 2006).
(§2) For animal treatment, animals were randomly distributed and the compound of Formula I was given in the drinking water at final concentration of 0.5 or 1 mg/kg. Drinking bottles were changed once per week, volume consumption was measured along the treatment period. Food consumption and body weight were assessed. In wild-type animals the pilot study of drug treatment was performed for one month to establish the innocuousness of the treatment with the compound of Formula I. This was based on the physiological, social and behavioural assessments. Thy-Tau22 males were treated for 4 months starting at 3 month old. All protocols were approved by the local ethics committee (n^∘342012, CEEA).
After behavioral assessment, blood was collected in 1.5 mL polypropylene tubes (Eppendorf, France), mice were sacrificed by cervical dislocation to avoid any modifications instrumental to anesthesia (Lefreche et al. 2012). Hippocampi and cortices were dissected and snap frozen in 1.5 mL tubes (Eppendorf). Tissue was homogenized in Tris-HCl buffer (10 mM pH 7.4) containing 320 mM sucrose, protease inhibitors (Complete mini EDTA-free, Roche) sonicated and spun at 12,000×g for 10 min at 4° C. The supernatant was recovered, protein concentration was achieved using the BCA Protein quantification assay kit (Pierce) according to the manufacturer instruction. The supernatant was further processed for biochemical analyses or kept at −80° C. For 1D or 2D gels, the same lysis buffer was used. Thus, equal amount protein in Tris buffer were added with a solution containing 7M urea, 2M thiourée with 2% SDS and sonicated at 60 Hz 30 pulses.
Two-dimensional gel electrophoresis was performed according to the recently published procedure (Fernandez-Gomez et al., 2014). Briefly, cells were rinsed once with PBS and lysed in UTS buffer (7M urea, 2M thiourea, 2% SDS) and sonicated at 60 Hz 30 pulses. Lysate was precipitated with methanol/chloroform. 50 μg of proteins were precipitate using the chloroform/methanol procedure and the pellet was dissolved in 2D buffer [urea 7M, thiourea 2M, 4% CHAPS, and 0.6% Pharmalytes 3-10 (G&E Healthcare)]. […] The strips were layered onto a 4-12% Bis-Tris Poly-acrylamide Gel XT™ Precast Criterion (BioRad) and run with a constant tension of 100V as described for 1D SDS-PAGE. The Western blot was performed as above described for 1D SDS-PAGE and Western-blotting.
To further determine the effect of the compound of Formula I on Tau metabolism, wild-type C57/BL6 animals were treated with 0.5 and 1 mg/Kg of the compound of Formula I for 1 month and endogenous MAPT expression was assessed by 2D gel electrophoresis. Tau protein isovariants consist of three series ranging from pI 10 to 6. The major and most basic isovariants correspond to the mouse Tau isoform comprising the sole exon 10 encoding sequence. The two other series of isoforms of molecular weight of 64 and 69 kDa are isovariants of Tau isoforms which, in addition to the exon 10, contain exon 2 or exon 2+3 encoding sequences, respectively.

Thy-Tau22 mice = assay: Morris water maze spatial memory, Thy-Tau22 mice; type: in vivo, mouse; conditions: 4 months
Description: as §1, §2
Before any behavioral test, exploratory and locomotion of treated and untreated animal were evaluated in a Open field (OF) 25 cm×25 cm arena. Four acquisitions in joined arena were performed simultaneously. Each mouse was placed in the arena and allowed to explore for at least 5 min. Parameters including distance, speed, velocity were acquired by video recording using the EthoVision video tracking equipment and software (Noldus, Information Technology, Paris, France) in a dedicated room. The anxiety, which could interfere with memory test, was evaluated by the elevated plus maze (EPM). […] Locomotion, distance, speed and velocity were measured as well as the number of arm entries, time spent in the open versus closed arms, percentage of open arm entries and time per minute spent in the open arms on a total of 5 min test.
Spatial learning and memory abilities were assessed in a standard hidden-platform acquisition and retention version of the Morris water maze task (Van der Jeugd et al., 2013). […] The time required to find the hidden rescue platform (escape latency) was used as a spatial learning index and was recorded using the Ethovision XT video tracking system (Noldus France). Swimming speed and total distance were also measured. 72 h after the acquisition phase, the hidden platform was removed and spatial memory was evaluated in a 60 s probe trial. […]

**Q.** Which “number of Tau isovariants stained with antibody S199” value ([1]; 0.5 mg/Kg) does the source give for `CC(C)CN(CCCN1CCN(CCCNc2c3c(nc4ccccc24)CCCC3)CC1)CC(C)C` [compound of Formula I, N-[3-(4-{3-[Bis(2-methylpropyl)amino]propyl}piperazin-1-yl)propyl]-1,2,3,4-tetrahydroacridin-9-amine] here?
**A.** The value was 3 isovariants.

**Q.** And the “low molecular weight Tau catabolic products (Tau-Cter antibody)” value ([1]; 0.5 mg/Kg, brain 2D gel, FIG. 3)?
**A.** Its value is “increased in number and intensity”.

**Q.** And the “number of Tau isovariants stained with antibody S199” value ([1]; 1 mg/Kg)?
**A.** The value was 2 isovariants.

**Q.** And the “distribution of Tau isovariants (Tau-Cter antibody)” value ([1]; 0.5 and 1 mg/Kg in drinking water, brain 2D gel, FIG. 3)?
**A.** The value was “did not significantly change”.

**Q.** What about the “surface of the spots stained with antibody S199” value ([1]; 0.5 and 1 mg/Kg, 2D gel) of the same molecule?
**A.** Its value is “reduced”.

**Q.** And the “overall 2D profile of the full-length Tau isoforms” value ([1]; after treatment 0.5 and 1 mg/Kg)?
**A.** The value was “preserved”.

**Q.** And the “probe test, spatial memory in Thy-Tau22 mice” value (Thy-Tau22 mice; 0.5 mg/kg, probe test 72 hours after last learning day)?
**A.** Its value is “preserved”.

**Q.** What about the “development of spatial memory impairments (ANOVA statistical analysis)” value (Thy-Tau22 mice; Thy-Tau22 mice, 0.5 mg/kg) of the same molecule?
**A.** The value was “protected or preserved”.

**Q.** What about the “time spent in the target quadrant versus the others” value (Thy-Tau22 mice; Thy-Tau22 treated, 0.5 mg/kg, untreated spent equal % of time, FIG. 4B) of the same molecule?
**A.** Its value is “more time”.

**Q.** And the “learning phase (distance to reach the platform) between the animal groups” value (Thy-Tau22 mice; WT and Thy-Tau22, treated or not with 0.5 mg/kg, FIG. 4A)?
**A.** The value was “not significantly different”.
